Results reported in ChEMBL document CHEMBL1122370 (J Med Chem, 1983).

What was measured:
[1] = test system: L1210; assay: In vivo antitumor activity against L1210 leukemia in 22 mice measured as T/C values(days); T/C = 22/9; format: functional, Mus musculus
[2] = test system: Mus musculus; assay: Average weight of the mouse after treating with 80 mg/kg dose for 7 days.; format: functional; parameters: unit not given beside the values
[3] = test system: L1210; assay: In vivo antitumor activity against L1210 leukemia in 5 mice measured as Increased life span at 40 mg/kg.; format: functional; conditions: Mus musculus
[4] = test system: Mus musculus; assay: Average weight of the mouse after treating with 140 mg/kg dose for 1 day.; format: functional
[5] = test system: L1210; assay: In vivo antitumor activity against L1210 leukemia in 10 mice measured as median survival range at 120 mg/kg; Value ranges from(13-36); format: functional, Mus musculus
[6] = test system: L1210; assay: In vivo antitumor activity against L1210 leukemia in 5 mice measured as Increased life span at 140 mg/kg.; format: functional; conditions: Mus musculus
[7] = test system: L1210; assay: In vivo antitumor activity against L1210 leukemia in 5 mice measured as Increased life span at 80 mg/kg.; format: functional; conditions: Mus musculus
[8] = test system: L1210; assay: In vivo antitumor activity against L1210 leukemia in 23 mice measured as T/C values(days); T/C = 23/9; format: functional, Mus musculus
[9] = test system: Mus musculus; assay: Average weight of the mouse after treating with 120 mg/kg dose for 7 days.; format: functional
[10] = test system: L1210; assay: In vivo antitumor activity against L1210 leukemia in 15 mice measured as T/C values(days); T/C = 15/9; format: functional, Mus musculus
[11] = test system: L1210; assay: In vivo antitumor activity against L1210 leukemia in 10 mice measured as Increased life span at 120 mg/kg.; format: functional; conditions: Mus musculus
[12] = test system: Mus musculus; assay: Average weight of the mouse after treating with 40 mg/kg dose for 7 days.; format: functional; parameters: unit not given beside the values
[13] = test system: Mus musculus; assay: Average weight of the mouse after treating with 20 mg/kg dose for 1 day.; format: functional; parameters: unit not given here
[14] = test system: Mus musculus; assay: Average weight of the mouse after treating with 80 mg/kg dose for 1 day.; format: functional; parameters: unit not given here
[15] = test system: L1210; assay: In vivo antitumor activity against L1210 leukemia in 5 mice measured as T/C values(days); T/C = 21/9; format: functional, Mus musculus
[16] = test system: L1210; assay: In vivo antitumor activity against L1210 leukemia in 5 mice measured as median survival range at 140 mg/kg; Value ranges from(8-27).; format: functional, Mus musculus
[17] = test system: Mus musculus; assay: Average weight of the mouse after treating with 140 mg/kg dose for 7 days.; format: functional
[18] = test system: L1210; assay: In vivo antitumor activity against L1210 leukemia in 5 mice measured as Increased life span at 20 mg/kg.; format: functional; conditions: Mus musculus
[19] = test system: L1210; assay: In vivo antitumor activity against L1210 leukemia in 5 mice measured as median survival range at 80 mg/kg; Value ranges from(13-26); format: functional, Mus musculus
[20] = test system: Mus musculus; assay: Average weight of the mouse after treating with 120 mg/kg dose for 1 day.; format: functional
[21] = test system: L1210; assay: In vivo antitumor activity against L1210 leukemia in 5 mice measured as median survival range at 40 mg/kg; Value ranges from(13-19); format: functional, Mus musculus
[22] = test system: L1210; assay: In vivo antitumor activity against L1210 leukemia in 14 mice measured as T/C values(days); T/C = 14/9; format: functional, Mus musculus
[23] = test system: Mus musculus; assay: Average weight of the mouse after treating with 20 mg/kg dose for 7 days.; format: functional; parameters: unit not given beside the values
[24] = test system: L1210; assay: In vivo antitumor activity against L1210 leukemia in 5 mice measured as median survival range at 20 mg/kg; Value ranges from(11-14); format: functional, Mus musculus
[25] = test system: Mus musculus; assay: (§1) Average weight of the mouse after treating with 40 mg/kg dose for 1 day.; format: functional; parameters: unit not given here
[26] = test system: L1210; assay: In vivo antitumor activity against L1210 leukemia in 15 mice measured as T/C values; T/C = 15/11; format: functional, Mus musculus
[27] = test system: Mus musculus; assay: Average weight of the mouse after treating with 400 mg/kg dose for 1 day.; format: functional
[28] = test system: L1210; assay: In vivo antitumor activity against L1210 leukemia in 5 mice measured as median survival range at 400 mg/kg; Value ranges from (14-20).; format: functional, Mus musculus
[29] = test system: Mus musculus; assay: Average weight of the mouse after treating with 400 mg/kg dose for 7 day.; format: functional
[30] = test system: L1210; assay: In vivo antitumor activity against L1210 leukemia in 5 mice measured as Increased life span at 400 mg/kg.; format: functional, Mus musculus
[31] = test system: L1210; assay: In vivo anti tumor activity against L1210 leukemia in 5 mice measured as Increased life span at 45 mg/kg; format: functional; conditions: Mus musculus
[32] = test system: Mus musculus; assay: Average weight change in mouse after treating with 60 mg/kg dose for 7 days.; format: functional
[33] = test system: L1210; assay: In vivo anti tumor activity against L1210 leukemia in 9 mice measured as Increased life span at 60 mg/kg; format: functional; conditions: Mus musculus
[34] = test system: Mus musculus; assay: Average weight change in mouse after treating with 30 mg/kg dose for 7 days.; format: functional
[35] = test system: L1210; assay: In vivo antitumor activity against L1210 leukemia in 5 mice measured as median survival range at 30 mg/kg; Value ranges from (10-14); format: functional, Mus musculus
[36] = test system: Mus musculus; assay: Average weight of the mouse after treating with 60 mg/kg dose for 1 day; format: functional
[37] = test system: Mus musculus; assay: Average weight of the mouse after treating with 30 mg/kg dose for 1 day; format: functional
[38] = test system: L1210; assay: In vivo antitumor activity against L1210 leukemia in 9 mice measured as median survival range at 60 mg/kg; Value ranges from (18-21); format: functional, Mus musculus
[39] = test system: L1210; assay: In vivo antitumor activity against L1210 leukemia in 5 mice measured as T/C values; T/C = 22/9; format: functional, Mus musculus
[40] = test system: Mus musculus; assay: as §1; format: functional
[41] = test system: L1210; assay: In vivo antitumor activity against L1210 leukemia in 5 mice measured as median survival range at 40 mg/kg; Value ranges from(21-31).; format: functional, Mus musculus
[42] = test system: Mus musculus; assay: Average weight of the mouse after treating with 10 mg/kg dose for 7 days.; format: functional
[43] = test system: L1210; assay: In vivo antitumor activity against L1210 leukemia in 5 mice measured as Increased life span at 10 mg/kg.; format: functional; conditions: Mus musculus
[44] = test system: L1210; assay: In vivo antitumor activity against L1210 leukemia in 5 mice measured as median survival range at 20 mg/kg; Value ranges from(15-17).; format: functional, Mus musculus
[45] = test system: L1210; assay: In vivo antitumor activity against L1210 leukemia in 17 mice measured as T/C values; T/C = 17/9; format: functional, Mus musculus
[46] = test system: Mus musculus; assay: Average weight of the mouse after treating with 10 mg/kg dose for 1 day.; format: functional; parameters: unit not given here
[47] = test system: L1210; assay: In vivo antitumor activity against L1210 leukemia in 16 mice measured as T/C values; T/C = 16/9; format: functional, Mus musculus
[48] = test system: L1210; assay: In vivo antitumor activity against L1210 leukemia in 5 mice measured as median survival range at 10 mg/kg; Value ranges from(14-22); format: functional, Mus musculus
[49] = test system: L1210; assay: In vivo anti tumor activity against L1210 leukemia in 5 mice measured as Increased life span at 40 mg/kg.; format: functional; conditions: Mus musculus

`CCCC(C)OC(=O)CCC(NC(=O)c1cc(Cl)c(N(C)Cc2cnc3nc(N)nc(N)c3n2)c(Cl)c1)C(=O)OC(C)CCC` (stereo not drawn) gave a T/C [1] of 22, a Weight change [2] of 1.5 and an ILS at 40 mg/kg [3] of 66%. It also gave an Average weight [4] of 21.6, a Range [5] of 36 and an ILS at 140 mg/kg [6] of 155%. It also gave an ILS at 80 mg/kg [7] of 133%, a T/C [8] of 9 and a Weight change [9] of 1.4. It also gave a T/C [10] of 9, an ILS at 120 mg/kg [11] of 145% and a Weight change [12] of 0.1. The Average weight [13] was 22.1, the Average weight [14] was 21.2 and the T/C [15] was 9. The Range [16] was 27, the Weight change [17] was 3.2 and the ILS at 20 mg/kg [18] was 55%. For the same molecule, the Range [19] was 26, the Average weight [20] was 21.5 and the Range [21] was 19. It also gave a T/C [22] of 9, a Weight change [23] of 2.6 and a Range [24] of 14. For the same molecule, the Average weight [25] was 20.6.
`CN(Cc1cnc2nc(N)nc(N)c2n1)c1ccc(C(=O)NC(CCC(=O)OC(C)(C)C)C(=O)OC(C)(C)C)cc1` (stereo not drawn) gave a T/C [26] of 11, an Average weight [27] of 27.6 and a Range [28] of 20. The Weight change [29] was 2.6 and the ILS [30] was 36.
Molecule `CCCCCCCCCCCCOC(=O)CCC(NC(=O)c1ccc(N(C)Cc2cnc3nc(N)nc(N)c3n2)cc1)C(=O)OCCCCCCCCCCCC` (stereo not drawn) has an ILS at 45 mg/kg [31] of 33%, a Weight change [32] of 0 and an ILS at 60 mg/kg [33] of 100%. For the same molecule, the Weight change [34] was 3, the Range [35] was 14 and the Average weight [36] was 24.2. For the same molecule, the Average weight [37] was 23.2 and the Range [38] was 21.
For `CN(Cc1cnc2nc(N)nc(N)c2n1)c1ccc(C(=O)NC(CCC(=O)OCc2cccnc2)C(=O)OCc2cccnc2)cc1` (stereo not drawn), the T/C [39] was 9, the Average weight [40] was 26 and the Range [41] was 31. It also gave a Weight change [42] of 1.1, an ILS at 10 mg/kg [43] of 88% and a Range [44] of 17. It also gave a Weight change [12] of 2, an Average weight [13] of 22 and a T/C [45] of 9. For the same molecule, the Average weight [46] was 21.3, the T/C [47] was 9 and the ILS at 20 mg/kg [18] was 77%. The Range [48] was 22, the ILS at 40 mg/kg [49] was 144% and the Weight change [23] was 1.
